Assays:
[1] = test system: human cytomegalovirus (HCMV); test: Fluorescence decay assay against human cytomegalovirus; assay type: cell-based; settings: Human betaherpesvirus 5, 240 h; US3-6-EGFP-HCMV-AD169 in MRCS cells, 10 days of culture, GFP fluorescence intensity
Procedure: Fluorescence Decay Assay Against Human Cytomegalovirus
The antiviral activity of the compound against human cytomegalovirus (HCMV) was evaluated by determining the median effective concentration (EC50) value of the compound. The HCMV used in this assay was inserted with enhanced green fluorescent protein (EGFP) as a reporter gene by gene recombination, and thus the replication of the virus in cells can be reflected by the expression level of GFP. The inhibitory activity of the compound on the expression of GFP in HCMV was evaluated by determining the fluorescence intensity in the wells of different concentrations of the compound using a high-content cell analysis platform Acumen eX3.
Fluorescence Decay Assay Against HCMV
MRCS cells were inoculated into a black 96-well cell culture plate at a density of 20,000 cells per well, and then incubated overnight in a 37° C., 5% CO2 incubator. US3-6-EGFP-HCMV-AD169 viruses were added to the cell culture wells at a certain MOI (0.003 to 0.1), and incubated in a 37° C., 5% CO2 incubator for 3 hours. After adsorption of viruses, the medium containing viruses was pipetted out, and 200 μl of cell culture medium containing different concentrations of the compound (4-fold dilution, 6 test concentrations) was added. […] After 10 days of culture, the fluorescence intensity was detected with a high content cell analysis platform Acumen eX3 (TTP LabTech). […]

HCMV (strain: GFP-AD169) = test: Human cytomegalovirus (HCMV) transplantation model in mice; assay type: in vivo; settings: NOD SCID mice, 8 mg/kg orally once per day
Procedure: Human Cytomegalovirus (HCMV) Transplantation Model in Mice
Gelatin sponge containing HCMV was transplanted into mice. After 9 days of continuous administration, the gelatin sponge was collected for plaque detection. The anti-HCMV effect of the compound in this model was evaluated by detecting the amount of HCMV in the gelatin sponge.
The animals used in the assay were NOD SCID mice (purchased from Shanghai SLAC Laboratory Animal Co., Ltd.), 5 weeks old, and male. There were 5 animals in each group. The day on which the mice were subjected to gelatin sponge transplantation was set as day 0. Human foreskin fibroblasts (HFF, MOI=0.03) were infected with HCMV (strain: GFP-AD169) in advance, and then the HFF cells infected with HCMV were added to 1 cm^2 gelatin sponges and incubated for use. The animals were anesthetized by intraperitoneal injection of pentobarbital sodium at a dose of 75 mg/kg (10 ml/kg). After the animals entered the deep anesthesia state, the treated gelatin sponges were subcutaneously transplanted into the back of the mice. From day 1 to day 9, 8 mg/kg (10 ml/kg) of compound 1 was administered orally once per day. On the day 9, four hours after the administration, the gelatin sponges were taken out and digested, and then the plaques were detected.

[2] = Plasma protein binding rate, equilibrium dialysis, human plasma; assay type: in vitro ADME; settings: equilibrium dialysis 37° C. 4 hours, read-out: Plasma Protein Binding PPB bound(%) (converted)
Procedure: Determination of the Plasma Protein Binding Rate of the Compound
The protein-binding rates of the test compound in the plasma of CD-1 mice, SD rats and human were evaluated by the equilibrium dialysis method. Compound 1 was diluted into the plasma of the above three species respectively to prepare samples with a final concentration of 2 μM. The samples were then added to a 96-well equilibrium dialysis device, and dialyzed against phosphate buffer solution at 37° C. for 4 hours. Warfarin was used as a control compound in the assay. The concentrations of the test compound and warfarin in the plasma and buffer were determined by LC-MS/MS method.

## COc1cc(N2CCN(C3=Nc4ccsc4[C@H](CC(=O)O)N3c3cc(C(F)(F)F)ccc3OC)C[C@H]2C)ccn1 (single isomer, unassigned) [Compound 1]
[1]
  EC50: 0.2 nM
HCMV (strain: GFP-AD169); day 1 to day 9
  body weights of the mice: stable
  clinical observations: no abnormality was found
HCMV (strain: GFP-AD169); gelatin sponge with HCMV-infected HFF, day 1 to day 9, plaque detection
  decrease in HCMV viral load: 2.38 log PFU/ml
[2]
  fraction unbound at 4 h, 2 μM: 0.06

Reference: patent US11174270B2, “Crystal form of 3,4-dihydrothieno[3,2-d]pyrimidine compound and preparation method thereof” (PHAENO THERAPEUTICS CO., LTD., priority 2018, dated 2021)
